Consider two compounds from publication PMC10539361, “Allosteric modulation of the fish taste receptor type 1 (T1R) family by the extracellular chloride ion” (Scientific Reports, 2023).

The EC50 is the concentration needed to bring the measured effect to its halfway point.

This assay addresses T1, zfT1R2a/zfT1R3 (Danio rerio, UniProt A0A8M1N8F9+Q2MHK9).
T1 sequence (A0A8M1N8F9 26-825): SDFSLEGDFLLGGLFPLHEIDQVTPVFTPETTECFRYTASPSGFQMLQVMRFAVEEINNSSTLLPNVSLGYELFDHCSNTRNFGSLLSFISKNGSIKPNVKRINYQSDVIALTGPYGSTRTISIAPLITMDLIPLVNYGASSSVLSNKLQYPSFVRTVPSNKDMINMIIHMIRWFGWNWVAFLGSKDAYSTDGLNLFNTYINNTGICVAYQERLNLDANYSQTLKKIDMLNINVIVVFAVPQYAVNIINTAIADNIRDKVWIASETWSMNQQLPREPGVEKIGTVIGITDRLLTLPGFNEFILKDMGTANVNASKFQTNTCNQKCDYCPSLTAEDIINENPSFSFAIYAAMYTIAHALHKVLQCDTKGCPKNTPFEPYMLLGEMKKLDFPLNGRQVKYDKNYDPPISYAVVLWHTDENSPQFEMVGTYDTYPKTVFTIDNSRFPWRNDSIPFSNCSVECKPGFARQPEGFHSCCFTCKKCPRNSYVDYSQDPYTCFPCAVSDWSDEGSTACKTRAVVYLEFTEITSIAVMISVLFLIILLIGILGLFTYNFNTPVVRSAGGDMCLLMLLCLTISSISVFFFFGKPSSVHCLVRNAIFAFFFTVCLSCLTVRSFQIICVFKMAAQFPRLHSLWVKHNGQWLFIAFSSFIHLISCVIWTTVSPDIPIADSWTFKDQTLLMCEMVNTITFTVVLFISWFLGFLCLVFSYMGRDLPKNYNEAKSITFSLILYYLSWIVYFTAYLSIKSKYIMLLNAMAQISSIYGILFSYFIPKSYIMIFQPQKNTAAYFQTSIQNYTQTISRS
T1 sequence (Q2MHK9 25-850): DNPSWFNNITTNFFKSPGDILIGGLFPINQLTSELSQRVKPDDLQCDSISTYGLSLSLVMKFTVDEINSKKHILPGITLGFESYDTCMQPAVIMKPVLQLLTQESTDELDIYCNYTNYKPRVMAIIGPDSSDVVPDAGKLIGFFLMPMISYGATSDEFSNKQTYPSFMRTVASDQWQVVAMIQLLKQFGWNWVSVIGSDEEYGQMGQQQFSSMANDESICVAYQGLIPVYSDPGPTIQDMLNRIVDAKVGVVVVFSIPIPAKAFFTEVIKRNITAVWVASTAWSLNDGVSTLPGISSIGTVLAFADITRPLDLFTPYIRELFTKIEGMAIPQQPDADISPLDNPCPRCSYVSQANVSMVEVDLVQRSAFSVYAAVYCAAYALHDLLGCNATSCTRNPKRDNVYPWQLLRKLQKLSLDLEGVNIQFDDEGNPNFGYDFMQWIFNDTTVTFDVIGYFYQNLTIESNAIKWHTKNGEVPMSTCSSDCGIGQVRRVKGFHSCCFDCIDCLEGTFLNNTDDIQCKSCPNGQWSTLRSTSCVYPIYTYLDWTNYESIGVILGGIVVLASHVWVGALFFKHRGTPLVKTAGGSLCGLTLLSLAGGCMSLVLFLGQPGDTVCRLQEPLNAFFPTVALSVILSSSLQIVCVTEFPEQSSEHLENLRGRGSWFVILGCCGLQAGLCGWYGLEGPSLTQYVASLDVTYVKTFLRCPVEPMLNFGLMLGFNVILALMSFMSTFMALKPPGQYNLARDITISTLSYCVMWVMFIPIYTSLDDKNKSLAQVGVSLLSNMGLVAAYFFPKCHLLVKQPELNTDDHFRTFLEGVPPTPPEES
Description: Ca2+ mobilization dose-response assay, stable cells expressing zfT1R2a/zfT1R3 with G16gust44. (A change in cytosolic calcium serves as a functional read-out for many receptors and channels.)
Description: The buffers with lower Cl^− were prepared by progressively replacing NaCl, KCl, CaCl2 and MgCl2 in the buffer with gluconate equivalents[20]. The pH was adjusted to 7.4 with NaOH. Ligands were diluted with the assay buffers at the desired concentrations.
Measurements of the responses of the cells by cell-based assay based on the intracellular Ca^2+ mobilization were carried out as described previously with some modifications[20],[34],[46],[47]. […] The cells were seeded in 96-well plates (clear-bottomed CellBIND surface plate, Corning, Glendale, AZ, USA) coated with ε-poly-L-lysine (Cosmo Bio, Tokyo, Japan) at approximately 70,000 cells per well. After 20 h, the medium was removed and replaced with high Cl^− buffer. After 3 h 30 min incubation at 27 °C, cells were loaded with 5 µM calcium-indicator dye Fluo-8 AM (AAT Bioquest, Sunnyvale, CA, USA) diluted in high Cl^− buffer. After incubation for 30 min at 27 °C, the cells were washed with buffers containing appropriate concentrations of Cl^−. The cellular assay was initiated after 3–5 min of resting and was completed within 5 min. The measurements were made using FlexStation 3 (Molecular Devices, Sunnyvale, CA, USA) at 27 °C. Fluorescence changes (i.e., excitation at 485 nm and emission at 525 nm with a cutoff at 515 nm) were monitored at 2 s intervals. A 100-µL aliquot of assay buffer supplemented with 2 × ligands was added at 20 s, and scanning was continued for an additional 40 s. The response of each well was determined as ∆RFU (delta relative fluorescent units), which was calculated as (maximum fluorescent value)—(minimum fluorescent value). […] Such normalized data from more than three independent experiments are reported as the mean ± standard error of the mean (SEM). Dose‒response fitting curves were calculated by Prism 9 (GraphPad Software, San Diego, CA) using nonlinear regression (log(agonist) vs. response—variable slope), based on the integrated data from the several independent experiments.

As for `[Cl-].[Na+]` [NaCl], for the setting “agonist L-Pro, buffers with 10-141.4 mM Cl-”, the “[Cl-]o at which sensitivity is clearly reduced” value is on record as “below 80 mM”. On to `C[C@H](N)C(=O)O` [L-Ala, L-alanine], for which the “EC50 in 10 mM Cl- buffer relative to high Cl- buffer” value (10 mM vs 141.4 mM Cl- buffer) is given as “not influenced”. Where the note is “EC50, [Cl-]o=10 mM, unit inferred”, this compound gave an EC50 of 132 µM.
